Measured values from ChEMBL document CHEMBL1124198, “Potential inhibitors of S-adenosylmethionine-dependent methyltransferases. 11. Molecular dissections of neplanocin A as potential inhibitors of S-adenosylhomocysteine hydrolase” (J Med Chem, 1988).

Tests used:
Vaccinia virus = settings: l929
Adenosylhomocysteinase [1] = target: T1, Adenosylhomocysteinase (Homo sapiens, UniProt P23526)
Adenosylhomocysteinase [2] = target: T1, Adenosylhomocysteinase; remark: listed apart in the source
Adenosylhomocysteinase [3] = target: Adenosylhomocysteinase (Mus musculus, UniProt P50247); experiment: biochemical
Sequence of Adenosylhomocysteinase (Mus musculus, UniProt P50247) (P50247 whole entry): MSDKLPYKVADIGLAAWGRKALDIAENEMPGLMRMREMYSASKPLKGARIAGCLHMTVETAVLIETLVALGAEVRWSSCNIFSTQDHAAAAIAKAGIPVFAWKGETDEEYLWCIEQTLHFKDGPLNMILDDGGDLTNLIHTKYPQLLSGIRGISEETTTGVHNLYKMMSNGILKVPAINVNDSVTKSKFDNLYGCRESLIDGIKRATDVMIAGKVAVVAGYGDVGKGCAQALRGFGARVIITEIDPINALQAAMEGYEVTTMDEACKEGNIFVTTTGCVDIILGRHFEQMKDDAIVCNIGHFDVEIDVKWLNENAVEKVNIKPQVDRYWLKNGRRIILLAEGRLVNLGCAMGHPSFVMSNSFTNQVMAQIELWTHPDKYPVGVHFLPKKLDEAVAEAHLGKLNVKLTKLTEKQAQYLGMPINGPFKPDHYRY

T1 sequence (P23526 whole entry): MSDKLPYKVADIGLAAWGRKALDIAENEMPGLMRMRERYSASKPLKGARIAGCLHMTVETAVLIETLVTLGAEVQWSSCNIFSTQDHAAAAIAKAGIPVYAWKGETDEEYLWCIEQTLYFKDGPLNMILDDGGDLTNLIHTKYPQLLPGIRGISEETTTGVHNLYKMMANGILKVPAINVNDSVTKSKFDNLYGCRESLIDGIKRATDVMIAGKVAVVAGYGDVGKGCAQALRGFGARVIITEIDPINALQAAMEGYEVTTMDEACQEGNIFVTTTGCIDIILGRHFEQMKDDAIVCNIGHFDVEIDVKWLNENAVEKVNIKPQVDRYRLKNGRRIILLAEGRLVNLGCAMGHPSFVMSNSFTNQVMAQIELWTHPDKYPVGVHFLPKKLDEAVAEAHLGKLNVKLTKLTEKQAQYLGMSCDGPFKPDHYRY

Structure (SMILES) | IC50 (Vaccinia virus) [µM] | IC50 (Adenosylhomocysteinase [1]) | Ki (Adenosylhomocysteinase [2]) | IC50 (Adenosylhomocysteinase [3]) [µM]
Nc1ncnc2c1ncn2C/C=C(/CO)[C@@H](O)CO.Nc1ncnc2c1ncn2C/C=C(\CO)[C@@H](O)CO | 170 | Not Active |  | 
C/C(=C\Cn1cnc2c(N)ncnc21)CO | 300 | Not Active |  | 
Nc1ncnc2c1ncn2C/C=C/C(O)CO (configuration not stated) | 250 |  | Not Active | 
Nc1nccc2c1ncn2C/C=C\[C@@H](O)CO | 70 | Not Active |  | 61
CC(C)=CCn1cnc2c(N)ncnc21 | 60 |  | Not Active | 
C/C(=C/Cn1cnc2c(N)ncnc21)CO | 220 | Not Active |  | 200
Nc1ncnc2c1ncn2C/C=C\[C@@H](O)CO | 100 | Not Active |  | 100
Nc1ncnc2c1ncn2C/C=C\CO | 108 | Not Active |  | 145
Nc1ncnc2c1ncn2CC#CCO | > 320 |  | Not Active | 
Nc1nccc2c1ncn2CC#CCO | 300 | Not Active |  | 200
Nc1nccc2c1ncn2C/C=C\CO | 300 | Not Active |  | 200
Nc1ncnc2c1ncn2CC=C(CO)CO | 700 | Not Active |  | 65
Nc1ncnc2c1ncn2C/C=C/CO | 109 | Not Active |  | 230
Nc1nccc2c1ncn2C/C=C/CO | 40 |  | Not Active | 
Nc1nccc2c1ncn2CC=C(CO)CO | 500 | Not Active |  | 110
Nc1ncnc2c1ncn2[C@@H]1C=C(CO)[C@@H](O)[C@H]1O [NEOPLANOCIN A] | 0.08 | Not Active |  | 0.05
